Data published in ChEMBL document CHEMBL1833811, “Design, synthesis and structure-activity relationship of novel [3.3.1] bicyclic sulfonamide-pyrazoles as potent γ-secretase inhibitors” (Bioorg Med Chem Lett, 2011).

Columns and labels:
[1] = Ratio of drug uptake in brain to plasma of wild type FVB mouse; assay type: ADME; settings: brain and plasma, read-out: BPR
[2] = Oral bioavailability in wild type FVB mouse; assay type: ADME, organism-based; settings: in vivo

SMILES	Kp [1]	bioavailability [2] [%]
O=S(=O)(c1ccc(C(F)(F)F)nc1)N1C2Cc3[nH]ncc3C1CC(c1ccc(F)cc1)C2 (single isomer, unassigned)	0.3	
Cc1noc(C2CC3Cc4[nH]ncc4C(C2)N3S(=O)(=O)c2ccc(Cl)cc2)n1 (single isomer, unassigned)	0.08	
O=S(=O)(c1ccc(Cl)cc1)N1C2CCCC1c1cn[nH]c1C2 (single isomer, unassigned)		2
